Assays:
CKAP4 [1] = conditions: ref [17], [18]; cited from earlier work
Description: (§1) The effects that APF has on cells are remarkable and unique among the reported ligands for CKAP4.

[2] = test system: normal bladder epithelial cells; conditions: in vitro; background statement, no reference given; read-out: IC50, growth inhibition; cited from earlier work
Description: as §1

bladder carcinoma cells = conditions: in vitro; background statement, no reference given; read-out: IC50, growth inhibition; cited from earlier work
Description: as §1

HeLa cells = conditions: in vitro; background statement, no reference given; read-out: IC50, growth inhibition; cited from earlier work
Description: as §1

CKAP4 [3] = experiment: SPR binding to CKAP4 recombinant proteins (overall statements); conditions: comparison of as-APF, APF and control peptide
Protocol: All SPR experiments were performed on a Biacore X-100 instrument (GE Healthcare) with the chip surface at 25 °C using PBS containing 0.01% Tween-20 as running buffer. CKAP4 recombinant proteins were immobilized individually either by Ni^2+/nitrilotriacetic acid (NTA) chelation on Sensor Chip NTA or by amine-coupling on Sensor Chip CM5, on the Fc2 channel. For amine-coupling, the sensor surface on both flow cells was activated for 7 min with a 1:1 mixture of 0.1 M EDC (1-ethyl-3-(3-dimethylaminopropyl) carbodiimide hydrochloride) and 0.1 M NHS (N-hydroxysuccinimide) at a flow rate of 5 μl/min. Immobilization of CKAP4 proteins (on Fc2) was performed in 10 mM sodium acetate buffer, at either pH 4.5, 5.0, or 5.5 based on preliminary pH scouting runs, for optimal binding. Unreacted NHS groups were quenched with a 7 min injection of 1 M ethanolamine pH 8.5. The Fc1 channel was treated similarly but without CKAP4 and served as a reference. Upon stabilization of the baseline signal, multi-cycle kinetics assays were performed with injections of as-APF as analyte at various concentrations (2.5–40 μM) in running buffer at 30 μl/min for 2 min, immediately followed by a 3 min dissociation phase. […] The data were analyzed using Biacore Evaluation software V2.0. […]

CKAP4_127–360 = molecular target: T1, CKAP4_127–360 (Homo sapiens, UniProt Q07065); experiment: SPR detection of as-APF in spiked urine, CKAP4_127–360 biosensor; format: binding; conditions: immobilized CKAP4_127–360
T1 construct: amino acids 106–602, 127–360, 361–524, and 525–602 regions were generated by PCR and subcloned into the pET-15b bacterial expression vector; His-tag; made in house; host or cells: E. coli BL21(DE3)pLysS
T1 sequence (Q07065 127-360): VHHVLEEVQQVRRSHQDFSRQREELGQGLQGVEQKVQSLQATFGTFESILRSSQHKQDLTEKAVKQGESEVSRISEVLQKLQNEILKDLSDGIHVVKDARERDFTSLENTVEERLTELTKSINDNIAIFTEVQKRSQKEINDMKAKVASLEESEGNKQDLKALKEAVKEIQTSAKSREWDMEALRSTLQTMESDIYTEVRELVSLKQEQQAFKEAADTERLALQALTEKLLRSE
Protocol: For experiments using spiked urine, CKAP4_127–360 was immobilized on the Fc2 channel of a CM5 chip by amine-coupling, as the ligand. The Fc1 channel was similarly treated but without CKAP4, to serve as reference. A control urine sample from a healthy donor was mixed 1:1 with as-APF stock (200 μM) solution. Various dilutions of this mixture in SPR running buffer were prepared to yield desired as-APF final concentrations, and then injected over the sensor chip surface. Corresponding dilutions of unspiked control urine were run under identical conditions to account for background interference from urinary constituents. To ensure identical running conditions, all dilutions were adjusted to 1X SPR running buffer from a 10X stock. Sensorgrams were corrected for background interference from urinary constituents by subtracting the RU traces resulting from unspiked urine injections from the RU traces resulting from the corresponding urine dilutions with spiked as-APF, and subsequently replotted after subtracting the RU trace from the reference (Fc1) channel.
In order to determine whether this SPR-based assay employing CKAP4 as a biosensor could be used to detect APF in urine, we used urine from healthy donors spiked with as-APF as a mimetic for IC patient urine. CKAP4_127–360 was employed as the biosensing ligand, since it bound as-APF with the highest affinity. […]

Neu5Acα2 − 3Galβ1 − 3GalNAcα-O-TVPAAVVVA [APF]
effect on CKAP4 localization (CKAP4 [1]): internalization, nuclear translocation
IC50 [2]: ~1 nM
IC50 (bladder carcinoma cells): ~1 nM
IC50 (HeLa cells): ~1 nM
binding to CKAP4 (in words) (CKAP4 [3]): bound to CKAP4 with high specificity compared to control APF peptide
detection in normal urine (CKAP4_127–360): in a dose-dependent manner

Source: publication PMC5594493, “Antiproliferative factor (APF) binds specifically to sites within the cytoskeleton-associated protein 4 (CKAP4) extracellular domain” (BMC Biochemistry, 2017)
